Molecules are shown by their SMILES. Where two headings read alike, the source gives them in different places.

As usually defined, the EC50 is the midpoint of the concentration-response curve. For orientation: CC50 means the concentration at which the toxic effect on the cells reaches its halfway point. The term half-life denotes the time in which the quantity being followed falls by half. Usually logD stands for lipophilicity at a set pH, counting ionised and neutral species. The Cmax is the highest concentration seen after dosing.

For data set [1], the system named is Respiratory syncytial virus recombinant with luciferase (RSV-Luc5) in HEp-2 cells. Kind of data set: microbe, parasite or virus in culture. To be noted: human respiratory syncytial virus. The class given is cell-based.
In data set [2] the test system is SARS Coronavirus 2 recombinant with NanoLuc (SARS-CoV2-NLuc) in A549-hACE2 cells. The data set can be described thus: organism not typed. The class given is cell-based.
Data set [3] concerns Respiratory syncytial virus recombinant with luciferase (RSV-Luc5) in Normal Human Bronchial Epithelial (NHBE) cells. The data set can be described thus: microbe, parasite or virus in culture. It is filed as cell-based.
Data set [4] in a line: CC50 MT4 cytotoxicity (Cell-Titer Glo). The class given is cell-based. The settings on record: human. A digest of the protocol:
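CC50 values are the concentrations cutting viability by 50%, fitted by non-linear regression against untreated (100%) and 2 μM puromycin (0%) controls. Cell-Titer Glo luminescence measured after 4-5 days at 37° C exposure of uninfected MT-4 and HEp-2 cells to 3-fold dilutions spanning 15 nM to 100,000 nM.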

Data set [5] can be described thus: GI S9 stability. To be noted: human, s9, pH 7.4. The class given is in vitro ADME. On the procedure:
Example G: GI S9 Stability
Duplicate aliquots of test compound or positive control substrate (GS-7340) were added to S9 stock diluted with 100 mM phosphate buffered saline, pH 7.4, to obtain a protein concentration of 1.0 mg/mL. The S9 metabolic reactions were initiated by the addition of the substrates to the S9 reaction mixture to a final concentration of 2 μM. At 0, 10, 20, 30, 60 and 120 min, […] aliquots of the reaction mixture were transferred to plates containing […] of IS/Q solution. After quenching, the plates were centrifuged at 3000 g for 30 minutes, and 150 μL aliquots of each supernatant were diluted with 150 μL water. Aliquots ([…]) of the diluted supernatant were analyzed on a Thermo Q-Exactive mass spectrometer as described below. GI S9 Stability—No phenylmethylsulfonyl fluoride (PMSF): Similar to the procedure described above, test compounds were incubated at 2 μM with 1 mg/mL PMSF-free Intestinal S9 fractions. Samples are removed at 6 time points over the course of a 120 min experiment and the parent compound disappreance and reference compound A formation is determined by mass spectrometry.
Example K: Liquid Chromatography/Mass Spectroscopy Methods for S9 and Plasma Stability
Quantification of test compounds, Reference Compound A (S9 stability assay nucleoside metabolite), and controls was performed by analyte/internal standard peak area ratio (PAR) values measured on a Thermo Q-Exactive mass spectrometer coupled to a Dionex UltiMate 3000 HPLC with a Leap Technologies HTC PAL autosampler. The column used for analysis of test compounds and Reference Compound A was a Waters Acquity BEH C18 ([…] particle size, 2.1′50 mm). The column used for control (GS-7340) was a Thermo Hypersil GOLD ([…] particle size, 2.1′50 mm). Mobile phase A consisted of 0.1% (v/v) formic acid in water. Mobile phase B consisted of 0.1% (v/v) formic acid in acetonitrile. Elution of analytes was achieved by a series of linear gradients of acetonitrile in water containing 0.1°(v/v) formic acid. The mass spectrometer was calibrated on a weekly basis and mass tolerance of 5 ppm was used.

A short description of data set [6]: Plasma stability. The class given is in vitro ADME. Details: unit not given here. To be noted: 37° C., 2 μM substrate. A digest of the protocol:
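LC-MS (Q-Exactive, 5 ppm tolerance, 0.1% formic acid water/acetonitrile gradient) quantified compound in quenched aliquots. Aliquots were taken at 0.05, 0.5, 1, 2, 3 and 4 hr and quenched with internal-standard solution, and supernatants were diluted with water after centrifugation.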

Data set [7] relates to Caco-2 cells (clone C2BBe1). The data set can be described thus: CACO-2 permeability. The class given is in vitro ADME. Details: unit not given here. The settings on record: for DM Caco2 A to B: apical to basolateral, donor pH 6.5, receiver pH 7.4; for DM Caco2 B to A: basolateral to apical. The method, boiled down:
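A-to-B and B-to-A flux measured by LC-MS/MS from receiver samples taken at 1 and 2 h, with donor sampled at 0 and 2 h and recovery checked. Buffers: pH 6.5 HBSS with 200 μM BNPP on the donor side, pH 7.4 with BSA on the receiver side. Monolayers were 21-day cultures, TEER-verified, in duplicate wells.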
A general note: Passage across Caco-2 layers is used to estimate intestinal permeability.

The nature of data set [8]: Thermodynamic solubility in pH7 buffered solution. The settings on record: 50 mM phosphate buffer pH7, 150 mM NaCl, ambient temperature, 24 hours. A digest of the protocol:
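Solid shaken 24 h at ambient temperature in 50 mM phosphate buffer pH7 with 150 mM NaCl. Supernatant diluted in 30:70 acetonitrile:water and quantified by UPLC-UV.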

Data set [9] is described as follows: Stability in pH2 buffered solution. It is filed as physicochemical. The method, boiled down: (§1)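 UPLC % area-normalized compound peak tracked over 24 hrs at 40° C. (0, 3, 6, 9, 12 and 24 hrs). Samples at 50 μg/mL, prepared from 1 mg/mL acetonitrile stock, in pH2 or pH7 50 mM phosphate/150 mM NaCl buffer.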
Data set [10] can be described thus: Stability in pH7 buffered solution. The class given is physicochemical. The settings on record: pH7 phosphate buffer, 40° C., Table N2. The method, boiled down:
as §1

Data set [11] in a line: DM logD.
Data set [12] is described as follows: GI S9 stability - no PMSF. To be noted: human, s9, 2 µM, pH 7.4. It is filed as in vitro ADME. The method, boiled down: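 Stability was assessed by Q-Exactive LC-MS peak area ratios against internal standard, tracking loss of parent and appearance of nucleoside metabolite Reference Compound A. Incubations used 2 μM compound in 1 mg/mL intestinal S9 without PMSF (PBS, pH 7.4), with six samples taken over 120 min.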

The conditions of data set [13]: male, Sprague-Dawley, rat, in vivo, po. On the procedure: Example E: Rat pharmacokinetics assay
Blood samples were collected into pre-chilled collection tubes containing K2EDTA and processed to plasma at 10 time points over a span of pre-dose to 24 h post-administration. Plasma samples were subject to protein precipitation with a 12.5-fold volume of methanol, vortexed and centrifuged. Supernatants were transferred and evaporated to dryness under nitrogen and reconstituted with 5% acetonitrile in water.

Where [14] appears, read: A549, read-out: EC50 SARS CoV2 NanoLuc A549 384.
[15] abbreviates: read-out: EC50 RSVFluc-NHBE 384 V2.
Where [16] appears, read: uninfected MT-4 cells, Table D3, read-out: CC50 MT4 384.

As to `CC(C)OC(=O)Nc1ncnn2c([C@]3(C#N)O[C@H](COC(=O)OC(C)C)[C@@H](OC(=O)OC(C)C)[C@H]3O)ccc12` [Compound 62, isopropyl (7-((2R,3R,4S,5R)-2-cyano-3-hydroxy-4-((isopropoxycarbonyl)oxy)-5-(((isopropoxycarbonyl)oxy)methyl)tetrahydrofuran-2-yl)pyrrolo[2,1-f][1,2,4]triazin-4-yl)carbamate], the EC50 is over 50 µM in [1] (HEp-2, 72 h, read-out: RSV Hep2 EC50); at least 5 µM in data set [2] (48 h, read-out: SARS-CoV2 EC50); at least 5 µM in [3] (72 h, read-out: RSV NHBE EC50). The molecule also came in with a CC50 in data set [4] of over 50 µM. This molecule also yielded a half-life at 2 µM in data set [5] of 31.1 min. Besides, in [6], the “STA Human Plasma 37” value amounted to 488.7. In addition, the “DM Caco2 A to B” value in [7] turned out to be 4.19. Further, the “DM Caco2 B to A” value in data set [7] turned out to be 12.12. Further, in data set [8], the “Sol pH 7” value came to 0.1. Moreover, in data set [9] (pH2 phosphate buffer, 40° C., 24 h, Table N2), the “pH 2 Stability 24 h % AN” value came to 61 % AN. Moreover, in [10], the “pH 7 Stability 24 h % AN” value amounted to 10 % AN.
With `N#C[C@@]1(c2ccc3c(N)ncnn23)O[C@H](COC(=O)OCCl)[C@@H](O)[C@H]1O` [Compound 101, ((2R,3S,4R,5R)-5-(4-aminopyrrolo[2,1-f][1,2,4]triazin-7-yl)-5-cyano-3,4-dihydroxytetrahydrofuran-2-yl)methyl (chloromethyl) carbonate], the EC50 is 1.84 µM in [1] (HEp-2, read-out: EC50 RSVFluc-Hep2 384 V2); 3.21 µM in [2] (setting [14]); 1.96 µM in data set [3] (setting [15]). In data set [4] (setting [16]), the CC50 is over 50 µM. The same molecule showed a logD in data set [11] of 0.9.
For `CCOP(=O)(O)O[C@H]1[C@@H](O)[C@](C#N)(c2ccc3c(N)ncnn23)O[C@@H]1COC(=O)OC(C)C` [Compound 144, [(2R,3S,4R,5R)-5-(4-aminopyrrolo[2,1-f][1,2,4]triazin-7-yl)-5-cyano-3-[ethoxy(hydroxy)phosphoryl]oxy-4-hydroxy-tetrahydrofuran-2-yl]methyl isopropyl carbonate], the EC50 in [2] (setting [14]) was over 50 µM; in data set [3] (setting [15]), 3.06 µM. In [4] (setting [16]), the CC50 was over 50 µM. The logD in data set [11] was determined as 0.4.
Consider `CN1[C@@H]2CC[C@H]1C[C@@H](OC(=O)OC[C@H]1O[C@@](C#N)(c3ccc4c(N)ncnn34)[C@H](O)[C@@H]1O)C2` [Compound 156, ((2R,3S,4R,5R)-5-(4-aminopyrrolo[2,1-f][1,2,4]triazin-7-yl)-5-cyano-3,4-dihydroxytetrahydrofuran-2-yl)methyl ((1R,3r,5S)-8-methyl-8-azabicyclo[3.2.1]octan-3-yl) carbonate], for which, in [2] (setting [14]), the EC50 was 31.4 µM. The EC50 in [3] (setting [15]) amounted to 49.8 µM. Further, the CC50 in data set [4] (setting [16]) is over 50 µM. The “GIS9-HUMAN-NoPMSF T1/2” value in data set [12] was determined as 789. The “STA Human Plasma 37” value in data set [6] is 248.79. Besides, in data set [7], the “DM Caco2 A to B” value was determined as 0.12 and the “DM Caco2 B to A” value was found to be 0.13. The same molecule displayed a logD in data set [11] of 0.3.
As for `CC(C)C(=O)OC[C@H]1O[C@@](C#N)(c2ccc3c(N)ncnn23)[C@H](O)[C@@H]1O` [Ester Reference Compound], in [13], the peak level (Cmax) was 2100 nM and the “Reference Compound A AUCinf.” value turned out to be 7.57 µM·h. Besides, the “Reference Compound A F %” value in data set [13] (1 mg/kg) is reported as 63.6%. Besides, the “Stability at pH2, 0 hr” value in [9] (0 h, 50 µg/mL, pH 2) turned out to be 98.5 % AN. Besides, the “Stability at pH2, 3 hr” value in data set [9] (3 h, 50 µg/mL, pH 2) turned out to be 97.8 % AN. Besides, the “Stability at pH2, 6 hr” value in data set [9] (6 h, 50 µg/mL, pH 2) worked out at 97.3 % AN. The “Stability at pH2, 9 hr” value in data set [9] (9 h, 50 µg/mL, pH 2) was determined as 96.7 % AN. Also, the “Stability at pH2, 12 hr” value in data set [9] (12 h, 50 µg/mL, pH 2) is reported as 96.1 % AN. The “Stability at pH2, 24 hr” value in data set [9] (24 h, 50 µg/mL, pH 2) turned out to be 94.4 % AN.

(Values after patent US12448383B2, “Compounds and methods for treatment of viral infections” (priority 2022, dated 2025).)
